The values below come from PubChem BioAssay AID220 (DTP/NCI, 2004).

The subject of this experiment is CD8F1 mice, subcutaneous mammary adenocarcinoma, T/C%. Briefly: NCI In Vivo Anticancer Drug Screen. Data for tumor model Mammary Adenocarcinoma CD8F1 (subcutaneous) in CD8F1. The note with it: higher = larger tumour. The essentials:
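Ratio of treated to vehicle-control outcome, based on either survival or tumor size, in mice bearing transplantable tumors given the test compound.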

[1] abbreviates: endpoint: median tumor weight (est.), dose: 12.5 mg/kg/injection, schedule: Q07DX005 (ip), vehicle: saline.
Setting [2] is: endpoint: median tumor weight (est.), dose: 25.0 mg/kg/injection, schedule: Q07DX005 (ip), vehicle: Klucel (hydroxypropylcellulose) (HPC).
The mark [3] stands for this setting: endpoint: median tumor weight (est.), dose: 25.0 mg/kg/injection, schedule: Q07DX005 (ip), vehicle: saline.
Setting [4] is: endpoint: median tumor weight (est.), dose: 50.0 mg/kg/injection, schedule: Q07DX005 (ip), vehicle: Klucel (hydroxypropylcellulose) (HPC).
Where [5] appears, read: endpoint: median tumor weight (est.), dose: 100.0 mg/kg/injection, schedule: Q07DX005 (ip), vehicle: Klucel (hydroxypropylcellulose) (HPC).
[6] abbreviates: endpoint: median tumor weight (est.), dose: 100.0 mg/kg/injection, schedule: Q07DX005 (ip), vehicle: saline.
Where [7] appears, read: endpoint: median tumor weight (est.), dose: 200.0 mg/kg/injection, schedule: Q07DX005 (ip), vehicle: Klucel (hydroxypropylcellulose) (HPC).
Where [8] appears, read: endpoint: median tumor weight change, dose: 125.0 mg/kg/injection, schedule: Q01DX001 (ip), vehicle: saline.
The mark [9] stands for this setting: endpoint: median tumor weight change, dose: 250.0 mg/kg/injection, schedule: Q01DX001 (ip), vehicle: saline.
Setting [10] is: endpoint: median tumor weight (est.), dose: 25.0 mg/kg/injection, schedule: Q07DX005 (ip), vehicle: suspension in saline.
Where [11] appears, read: endpoint: median tumor weight (est.), dose: 50.0 mg/kg/injection, schedule: Q07DX005 (ip), vehicle: suspension in saline.
Setting [12] is: endpoint: median tumor weight (est.), dose: 100.0 mg/kg/injection, schedule: Q07DX005 (ip), vehicle: suspension in saline.

Several values for one entry are separate records, joined by “and”; a condition that tells them apart may be missing. Equal entries are not always repeated. Results filed as inconclusive are left out. Residues, ends and D or L forms follow the SMILES beside them. *: point of attachment. Trt = c1ccc(C(c2ccccc2)(c2ccccc2)*)cc1; Cbz = O=C(OCc1ccccc1)*

As to `O=C(Nc1ccc(Cl)c(Cl)c1)Nc1c(Oc2ccc(Cl)c(Cl)c2)ccc(Cl)c1S(=O)(=O)O`, the T/C by setting is: (endpoint: median tumor weight (est.), dose: 6.25 mg/kg/injection, schedule: Q07DX005 (ip), vehicle: Klucel (hydroxypropylcellulose) (HPC)) 114 % of control; (endpoint: median tumor weight (est.), dose: 6.25 mg/kg/injection, schedule: Q07DX005 (ip), vehicle: saline) 78 % of control; (endpoint: median tumor weight (est.), dose: 12.5 mg/kg/injection, schedule: Q07DX005 (ip), vehicle: Klucel (hydroxypropylcellulose) (HPC)) 244 % of control; under setting [1], 123 % of control; under setting [2], 110 % of control; under setting [3], 123 % of control. In addition, the T/C was 318 % of control under setting [4]; 65 % of control under setting [5]; 121 % of control under setting [6]; 323 % of control under setting [7]; 114 % of control (endpoint: median tumor weight (est.), dose: 200.0 mg/kg/injection, schedule: Q07DX005 (ip), vehicle: saline).

With `CCN(CC)CCOCCO`, the T/C reads like this: (endpoint: median tumor weight change, dose: 62.5 mg/kg/injection, schedule: Q01DX001 (ip), vehicle: saline) 151 % of control; under setting [8], 172 % of control; under setting [9], 65 % of control.

For `N#CC(=C1SCS1)[N+](=O)[O-]`, the T/C runs as follows: (endpoint: median tumor weight change, dose: 7.5 mg/kg/injection, schedule: Q01DX001 (ip), vehicle: saline with Tween-80) 83 % of control; (endpoint: median tumor weight change, dose: 15.0 mg/kg/injection, schedule: Q01DX001 (ip), vehicle: saline with Tween-80) 90 % of control; (endpoint: median tumor weight change, dose: 30.0 mg/kg/injection, schedule: Q01DX001 (ip), vehicle: saline with Tween-80) 152 % of control; (endpoint: median tumor weight change, dose: 60.0 mg/kg/injection, schedule: Q01DX001 (ip), vehicle: saline with Tween-80) 48 % of control.

As for `[N-]=[N+]=CC(=O)CCC(=O)C=[N+]=[N-]`, the T/C was 65 % of control (endpoint: median tumor weight (est.), dose: 6.25 mg/kg/injection, schedule: Q07DX005 (ip), vehicle: DMSO); 73 % of control (endpoint: median tumor weight (est.), dose: 12.5 mg/kg/injection, schedule: Q07DX005 (ip), vehicle: DMSO); 78 % of control (endpoint: median tumor weight (est.), dose: 25.0 mg/kg/injection, schedule: Q07DX005 (ip), vehicle: DMSO); 38 % of control (endpoint: median tumor weight (est.), dose: 50.0 mg/kg/injection, schedule: Q07DX005 (ip), vehicle: DMSO); 47 % of control (endpoint: median tumor weight (est.), dose: 100.0 mg/kg/injection, schedule: Q07DX005 (ip), vehicle: DMSO).

As for `C=C(NC(=O)C(=C)NC(=O)c1csc(C2=NC3c4csc(n4)C4NC(=O)c5csc(n5)C(C(C)(O)C(C)O)NC(=O)C5CSC(=N5)/C(=C/C)NC(=O)C(C(C)O)NC(=O)c5csc(n5)C3(CC2)NC(=O)C(C)NC(=O)C(=C)NC(=O)C(=C)NC(=O)C(C(C)C)NC2C=Cc3c(C(C)O)cc(nc3C2O)C(=O)OC4C)n1)C(N)=O` (centres undefined), the T/C runs as follows: under setting [8], 156 % of control; under setting [9], 106 % of control; (endpoint: median tumor weight change, dose: 500.0 mg/kg/injection, schedule: Q01DX001 (ip), vehicle: saline) 110 % of control; (endpoint: median tumor weight change, dose: 1000.0 mg/kg/injection, schedule: Q01DX001 (ip), vehicle: saline) 86 % of control.

In the case of `CCN(CC)CCCC(C)Nc1c2ccc(Cl)cc2nc2ccc(OC)cc12` (centres undefined), the T/C runs as follows: under setting [1], 88 % of control; under setting [3], 65 % of control; under setting [10], 60 % of control; (endpoint: median tumor weight (est.), dose: 50.0 mg/kg/injection, schedule: Q07DX005 (ip), vehicle: saline) 90 % of control; under setting [11], 94 % of control; under setting [6], 74 % of control. Moreover, under setting [12], the T/C was 50 % of control.

`COC(=O)C(CSC(c1ccccc1)(c1ccccc1)c1ccccc1)NC(=O)C(CC(N)=O)NC(=O)OCc1ccccc1` (stereo not drawn) (Cbz-Asn-Cys(Trt)-OMe; configuration not given here): the T/C reads like this: (endpoint: median tumor weight change, dose: 125.0 mg/kg/injection, schedule: Q01DX001 (ip), vehicle: distilled water + Tween-80) 101 % of control and 116 % of control; (endpoint: median tumor weight change, dose: 500.0 mg/kg/injection, schedule: Q01DX001 (ip), vehicle: distilled water + Tween-80) 50 % of control; (endpoint: median tumor weight change, dose: 2000.0 mg/kg/injection, schedule: Q01DX001 (ip), vehicle: distilled water + Tween-80) 40 % of control and 57 % of control.

In the case of `Nc1nc(F)nc2c1ncn2C1OC(COP(=O)(O)O)C(O)C1O` (centres undefined), the T/C is 69 % of control (endpoint: median tumor weight (est.), dose: 12.5 mg/kg/injection, schedule: Q07DX005 (ip), vehicle: suspension in saline); 49 % of control under setting [2]; 84 % of control under setting [3]; 101 % of control under setting [10]; 77 % of control under setting [4]; 76 % of control under setting [11]. Also, the T/C reads like this: under setting [5], 101 % of control; under setting [6], 75 % of control and 98 % of control; under setting [12], 66 % of control; under setting [7], 50 % of control; (endpoint: median tumor weight (est.), dose: 200.0 mg/kg/injection, schedule: Q07DX005 (ip), vehicle: suspension in saline) 50 % of control; (endpoint: median tumor weight (est.), dose: 400.0 mg/kg/injection, schedule: Q07DX005 (ip), vehicle: Klucel (hydroxypropylcellulose) (HPC)) 34 % of control. Further, under “endpoint: median tumor weight (est.), dose: 400.0 mg/kg/injection, schedule: Q07DX005 (ip), vehicle: saline”, the T/C is 20 % of control.

`COC1C(O)CC(OC2C(C)OC(Oc3cc(O)c4c(O)c5c(cc4c3)C[C@@H]([C@H](OC)C(=O)[C@@H](O)[C@@H](C)O)[C@H](OC3CC(OC4CC(OC6CC(C)(O)C(O)C(C)O6)C(O)C(C)O4)C(O)C(C)O3)C5=O)CC2OC(C)=O)OC1C` (some centres undefined): the T/C reads like this: (endpoint: median tumor weight (est.), dose: 18.75 mg/kg/injection, schedule: Q07DX005 (ip), vehicle: suspension in saline) 207 % of control; (endpoint: median tumor weight (est.), dose: 75.0 mg/kg/injection, schedule: Q07DX005 (ip), vehicle: suspension in saline) 66 % of control; (endpoint: median tumor weight (est.), dose: 150.0 mg/kg/injection, schedule: Q07DX005 (ip), vehicle: suspension in saline) 111 % of control; (endpoint: median tumor weight (est.), dose: 300.0 mg/kg/injection, schedule: Q07DX005 (ip), vehicle: suspension in saline) 123 % of control.

For `CC1OC(=O)C(C(C)C)NC(=O)C(C(C)C)OC(=O)C(C(C)C)NC(=O)C(C)OC(=O)C(C(C)C)NC(=O)C(C(C)C)OC(=O)C(C(C)C)NC(=O)C(C)OC(=O)C(C(C)C)NC(=O)C(C(C)C)OC(=O)C(C(C)C)NC1=O` (centres undefined), the T/C was 119 % of control (endpoint: mean tumor weight, dose: 1.0 mg/kg/injection, schedule: Q02DX007 (ip), vehicle: saline); 49 % of control (endpoint: mean tumor weight, dose: 1.0 mg/kg/injection, schedule: Q07DX006 (ip), vehicle: saline); 87 % of control (endpoint: mean tumor weight, dose: 2.0 mg/kg/injection, schedule: Q02DX007 (ip), vehicle: saline); 110 % of control (endpoint: mean tumor weight, dose: 2.0 mg/kg/injection, schedule: Q07DX006 (ip), vehicle: saline); 97 % of control (endpoint: mean tumor weight, dose: 4.0 mg/kg/injection, schedule: Q02DX007 (ip), vehicle: saline); 165 % of control (endpoint: mean tumor weight, dose: 4.0 mg/kg/injection, schedule: Q07DX006 (ip), vehicle: saline). Further, the T/C by setting is: (endpoint: mean tumor weight, dose: 8.0 mg/kg/injection, schedule: Q02DX007 (ip), vehicle: saline) 103 % of control; (endpoint: mean tumor weight, dose: 8.0 mg/kg/injection, schedule: Q07DX006 (ip), vehicle: saline) 84 % of control; (endpoint: mean tumor weight, dose: 16.0 mg/kg/injection, schedule: Q02DX007 (ip), vehicle: saline) 116 % of control; (endpoint: mean tumor weight, dose: 16.0 mg/kg/injection, schedule: Q07DX006 (ip), vehicle: saline) 70 % of control; (endpoint: median tumor weight (est.), dose: 1.25 mg/kg/injection, schedule: Q07DX005 (ip), vehicle: saline with Tween-80) 69 % of control; (endpoint: median tumor weight (est.), dose: 2.5 mg/kg/injection, schedule: Q07DX005 (ip), vehicle: saline with Tween-80) 34 % of control. The T/C (endpoint: median tumor weight (est.), dose: 5.0 mg/kg/injection, schedule: Q07DX005 (ip), vehicle: saline with Tween-80) is 86 % of control; the T/C (endpoint: median tumor weight (est.), dose: 10.0 mg/kg/injection, schedule: Q07DX005 (ip), vehicle: saline with Tween-80) is 114 % of control; the T/C (endpoint: median tumor weight (est.), dose: 20.0 mg/kg/injection, schedule: Q07DX005 (ip), vehicle: saline with Tween-80) is 74 % of control.
